Results on four compounds are retold here after ChEMBL document CHEMBL4359925, “Rational discovery of a highly novel and selective mTOR inhibitor” (Bioorg Med Chem Lett, 2019).

Test [1] deals with Serine/threonine-protein kinase mTOR (Homo sapiens, UniProt P42345). The experiment in a line: Inhibition of human mTOR measured after 30 mins in presence of ATP by Lanthascreen TR-FRET assay.
Test [2] has as its target Phosphatidylinositol 4,5-bisphosphate 3-kinase catalytic subunit alpha isoform (Homo sapiens, UniProt P42336). The experiment in a line: Inhibition of PI3K alpha (unknown origin).

Sequence of Phosphatidylinositol 4,5-bisphosphate 3-kinase catalytic subunit alpha isoform (P42336 whole entry, canonical isoform): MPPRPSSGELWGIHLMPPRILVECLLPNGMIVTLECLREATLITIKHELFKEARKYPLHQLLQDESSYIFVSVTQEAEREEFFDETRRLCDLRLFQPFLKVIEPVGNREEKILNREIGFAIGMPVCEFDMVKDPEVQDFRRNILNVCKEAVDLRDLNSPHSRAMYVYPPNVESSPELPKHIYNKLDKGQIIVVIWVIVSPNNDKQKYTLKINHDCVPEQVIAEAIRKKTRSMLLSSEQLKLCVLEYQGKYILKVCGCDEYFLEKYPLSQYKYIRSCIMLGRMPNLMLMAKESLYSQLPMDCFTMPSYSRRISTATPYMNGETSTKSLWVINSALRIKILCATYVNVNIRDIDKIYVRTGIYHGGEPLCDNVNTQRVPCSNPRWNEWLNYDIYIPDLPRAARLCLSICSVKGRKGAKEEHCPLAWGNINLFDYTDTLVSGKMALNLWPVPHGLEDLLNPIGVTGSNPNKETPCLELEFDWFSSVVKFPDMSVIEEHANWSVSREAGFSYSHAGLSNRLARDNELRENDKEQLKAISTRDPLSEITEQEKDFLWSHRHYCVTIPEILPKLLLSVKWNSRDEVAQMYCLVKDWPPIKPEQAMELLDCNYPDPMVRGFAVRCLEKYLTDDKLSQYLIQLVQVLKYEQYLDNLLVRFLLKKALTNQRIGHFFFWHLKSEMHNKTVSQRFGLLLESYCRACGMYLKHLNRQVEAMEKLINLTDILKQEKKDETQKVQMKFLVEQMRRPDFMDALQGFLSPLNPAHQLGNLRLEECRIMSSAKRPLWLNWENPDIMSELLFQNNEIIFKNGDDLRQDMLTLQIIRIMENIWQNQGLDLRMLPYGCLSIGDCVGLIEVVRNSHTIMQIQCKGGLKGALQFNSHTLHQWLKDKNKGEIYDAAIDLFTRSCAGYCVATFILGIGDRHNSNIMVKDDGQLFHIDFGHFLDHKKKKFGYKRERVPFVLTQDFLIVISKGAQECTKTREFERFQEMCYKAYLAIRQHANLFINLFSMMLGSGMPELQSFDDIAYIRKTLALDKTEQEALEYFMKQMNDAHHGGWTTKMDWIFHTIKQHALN

`CNC(=O)Nc1ccc(-c2ncc3c(n2)N2CCOCC2C(=O)N3)cc1` (configuration not stated): the IC50 in test [1] was 316 nM; in test [2], 31.6 nM.

With `O=C(Nc1ccc(-c2nc(N3CCOCC3)c3c(n2)C2(CC2)OC3)cc1)NC1CC1`, the IC50 in test [1] is < 31.6 nM. Turning to `CNC(=O)Nc1ccc(-c2ncc3c(n2)N2CCOC[C@@]2(C)C(=O)N3CC2CC2)cc1`, the IC50 was 7.94 nM in test [1] and 79.4 nM in test [2]. The matching figures for `CNC(=O)Nc1ccc(-c2nc(C)c3nc4n(c3n2)CCOC4)cc1`: 5010 nM and 5010 nM.
